A short description of the series: TGA (thermogravimetric analysis) of thermal stability. Particulars: FIG. 3, ranking among the three compounds.

Molecules are shown by their SMILES.

With `OC[C@H]1O[C@@H]2O[C@H]3[C@H](O)[C@@H](O)[C@@H](O[C@H]4[C@H](O)[C@@H](O)[C@@H](O[C@H]5[C@H](O)[C@@H](O)[C@@H](O[C@H]6[C@H](O)[C@@H](O)[C@@H](O[C@H]7[C@H](O)[C@@H](O)[C@@H](O[C@H]8[C@H](O)[C@@H](O)[C@@H](O[C@H]1[C@H](O)[C@H]2O)O[C@@H]8CO)O[C@@H]7CO)O[C@@H]6CO)O[C@@H]5CO)O[C@@H]4CO)O[C@@H]3CO` [β-CD, β-cyclodextrin], the thermal stability entry is “highest”.

The values above are taken from patent publication US20070015729A1, “Conjugate of cyclodextrin and poly(oxyethylene), and process for preparation thereof” (priority 2005, published 2007).
